In patent US5545625A, “Preventing conversion of citrulline to argininosuccinate to limit pathological nitric oxide overproduction” (The Medical College of Wisconsin Research Foundation, Inc., priority 1994, dated 1996):

How the values were obtained:
nitric oxide synthase = assay: Nitric oxide synthase (NOS) activity of cytosol of rat aortic smooth muscle cells induced with LPS/interferon-gamma in presence of test agent (Example I); type: cell-based; settings: mithramycin 0.001 to 10 μg/ml with LPS 30 μg/ml plus interferon-gamma 50 ng/ml, 24 hours; FIG. 1
Procedure: (§1) Aortic smooth muscle cells were cultured by explanting segments of the medial layer of aortae from adult male Fischer 344 rats. Aortae were removed aseptically and freed of adventitial and endothelial cells by scraping both the lumenal and abluminal surfaces. Medial fragments (1-2 mm) were allowed to attach to dry Primaria 25 cm^2 tissue culture flasks (Falcon; Oxnard, Calif.) which were kept moist with growth medium until cells emerged. Cultures were fed twice weekly with medium 199 containing 10% fetal bovine serum, 25 mM HEPES, 2 mM L-glutamine, 40 μg/ml endothelial cell growth supplement (Biomedical Technologies; Stoughton, Mass.) and 10 μg/ml gentamycin (GIBCO; Grand Island, N.Y.). When primary cultures became confluent, they were passaged by trypsinization and the explants were discarded. Cells in passage 10-15 were seeded at 20,000/well in 96-well plates. […]
Nitric oxide formation by smooth muscle cell cytosol was measured using a spectrophotometric kinetic microplate assay based on the increase in A405 accompanying the oxidation of Fe^2+ -myoglobin by nitric oxide. […] Assays were performed in triplicate with A405 recorded for each sample every 18 seconds for a period of 15 minutes. The rate of nitric oxide synthesis was calculated from the rate of increase in A405 by linear regression analysis. […]

[1] = system: argininosuccinate synthetase; assay: Argininosuccinate synthetase (AS) activity of rat aortic smooth muscle cells induced with LPS/interferon-gamma in presence of test agent (Example I); type: cell-based; settings: mithramycin 0.001 to 10 μg/ml with LPS 30 μg/ml plus interferon-gamma 50 ng/ml, 24 hours; FIG. 1
Procedure: as §1
Argininosuccinate synthetase activity was assayed based on the conversion of [^14 C]aspartate to [^14 C]argininosuccinate, as described in O'Brien, W. E., Biochemistry 18, 5353-5356, 1979, with the exception that aspartate was present at a concentration of 30 μm (0.021 μCi/nmol). […] Reactions were allowed to proceed for 90 minutes at 37° C before termination and quantification of the [^14 C]argininosuccinate formed, using ion exchange chromatography on Dowex 1-X8 (200-400 mesh, Bio-Rad).

## COC(C(=O)C(O)C(C)O)C1Cc2cc3cc(OC4CC(OC5CC(O)C(O)C(C)O5)C(O)C(C)O4)c(C)c(O)c3c(O)c2C(=O)C1OC1CC(OC2CC(OC3CC(C)(O)C(O)C(C)O3)C(O)C(C)O2)C(O)C(C)O1 (centres unmarked) [mithramycin]
Nitric oxide synthase
  nitric oxide synthase activity: blocks argininosuccinate synthetase activity as well as nitric oxide synthase activity
[1]
  argininosuccinate synthetase activity: as a function of its concentration blocks argininosuccinate synthetase activity
